Measurements: a melting point compilation (Tetko et al.; mined from patent text by program, amines drawn as free bases though some values may be those of a salt)

Row | Compound | melting point [°C]
1 | CC(Oc1ccc(Oc2ccc(F)cc2)cc1)(C(=O)O)c1ccccc1 (centres undefined) | 113 to 115
2 | COc1ccc(C(C)(C)C(=O)O)cc1 | 86 to 88
3 | O=C(Cc1cccc(O)c1)NNC(=O)c1c(OCc2ccccc2)cc(OCc2ccccc2)cc1OCc1ccccc1 | 154 to 155
4 | N#CC1c2ccccc2Oc2ccccc21 | 97 to 98
5 | O=S(=O)(Nc1cc(Br)c(O)c2ccccc12)c1cccs1 | 128 to 130
6 | COC(=O)c1ccc(OC)c(F)c1F | 66 to 68
7 | CCOC(=O)C1=C(N2CCCC2)N=C(C)C(C(=O)OCC)C1c1ccccc1C#N (centres undefined) | 115
8 | O=C(c1ccc(-c2cnc3c(c2)N(Cc2cc(F)ccc2F)CCN3)cn1)N1CCOCC1 | 111 to 113
9 | O=c1ccc2cnc(Nc3ccccc3)nc2[nH]1 | > 350
10 | COc1ccc(Cn2c3c(c4cc(OC)c(OC)cc4c2=O)C(=O)c2cc4c(cc2-3)OCO4)cc1 | 360 to 364
11 | COC(=O)C(=O)Nc1c(-c2ccccc2)c(=O)[nH]c2cc(Cl)ccc12 | 240
12 | COc1ccc(CNc2nc(CCCC(=O)O)nc3[nH]c4ccccc4c23)cc1Cl | 143
13 | CSc1ncccc1OCCO | 80
14 | CCCc1nc2c(n1Cc1ccc(-c3ccccc3-c3nnn[nH]3)cc1)C(C(=O)OCC)N(C(C)=O)CC2 (centres undefined) | 184 to 185
15 | Cn1c(C(F)(F)F)cc(=O)n(-c2ncc(Cl)cc2F)c1=O | 133 to 134
16 | COC(OC)C(=O)NCc1ccc(C)cc1 | 45.8
17 | CN(Cc1cccnc1)C(=N)NC#N | 141 to 143
18 | CN(Cc1cc2c3c(c1)c(=O)c(C(=O)NCc1ccc(Cl)cc1)cn3CC(=O)N2C)C[C@H](O)c1cccnc1 | 125 to 127
19 | CC(C)N(CCN1C(=O)C(=O)c2cc(F)ccc21)C(C)C | 100 to 102
20 | CN(N(S(C)(=O)=O)S(C)(=O)=O)S(C)(=O)=O | 123 to 124
21 | Cc1ccccc1NC(=O)Nc1ccc(CNC(=O)OC(C)(C)C)cc1 | 200 to 202
22 | N#Cc1c(N2CCc3ccccc3CC2)nc2n(c1=O)CCCC2 | 136 to 140
23 | CC(C)(C)c1cc(SC2CC(=O)N(C3CCCCC3)C2=O)cc(C(C)(C)C)c1O (centres undefined) | 94 to 98
24 | NCC(O)c1cccc(C(F)(F)F)c1 (centres undefined) | 72
25 | COC(=O)C1=C(C)NC(C)=C(C(=O)OC)C1c1ccccc1NC(C)=O | 284 to 285
26 | Cc1c(C(=O)c2sc(Nc3ccc(S(N)(=O)=O)cc3)nc2N)sc2ccccc12 | 274 to 276

Row | Compound | melting point [°C]
27 | COc1cc(C(=CC#N)c2cc(OC)c(OC)c(OC)c2)ccc1N | 123 to 125
28 | NC(=O)c1cccc(OCCF)c1OCCF | 100 to 101
29 | Cc1c(C(=O)O)cnn1CCO | 203
30 | Clc1cc(CBr)c(CBr)cc1Cl | 55 to 56
31 | C=C(c1ccc(N(C)C)cc1)c1ccc(N2CCCC2)cc1 | 149 to 150
32 | COc1cc(N(C)C)ccc1Nc1nc(Nc2ccc3c(c2)C(C)(C)CCC(=O)N3C)ncc1Cl | 244 to 263
33 | O=C(NC1CCN(CCC2CCOc3ccccc32)CC1)C1CCc2ccccc2C1 (centres undefined) | 130 to 132
34 | CCCS(=O)(=O)Oc1ccc(-c2c(C)c(C(=O)NN3CCCCC3)nn2-c2ccc(Cl)cc2Cl)cc1 | 190
35 | O=C(OC1CCCC1=O)c1ccccc1 (centres undefined) | 87 to 88
36 | CN1CCN(c2ccc(I)nn2)CC1 | 149
37 | CC(=O)CN(C(=O)Cc1ccccc1)C(C)(C)c1cccc(Cl)c1 | 98 to 100
38 | CSc1ccnc(-c2nc(=O)c3ccccc3s2)c1 | 213 to 214
39 | COc1cc(C=C(N)C(C)=O)ccc1OCC(O)CNC(C)C (centres undefined) | 139 to 140
40 | CS(=O)(=O)CC(=O)Nc1c(C(=O)c2ccccc2)[nH]c2cc(Cl)ccc12 | 217 to 220
41 | Fc1ccc2[nH]cc(CCc3ccncc3)c2c1 | 128
42 | O=C(OC1CCN(Cc2cccc([N+](=O)[O-])c2)CC1)c1ccccc1 | 54 to 55
43 | CCn1c2ccccc2c2oc(C(N)=O)cc(=O)c21 | 224 to 226
44 | N#CC1c2ccccc2Cc2ccccc21 | 106 to 108
45 | O=C(O)C(O)(c1ccccc1)c1ccc(Br)cc1 (racemic) | 125 to 126
46 | COc1cccc(CC(=O)O)c1OCCCc1cc(OC(C)C)nn1Cc1ccc(Cl)cc1C | 108 to 109
47 | Cc1cc(NCC(C)C)c(N)c2nnnn12 | 159 to 162
48 | NS(=O)(=O)c1ccc(Cl)c(NC(=O)c2cnn3c(C(F)F)cc(-c4ccc(C(F)(F)F)cc4)nc23)c1 | 286
49 | CCOC(=O)c1ccc(-c2cnc3c(c2)N(Cc2ccccc2OC(F)(F)F)CCN3)cc1 | 153
50 | N#Cc1ccc(-c2csc(Nc3ccccc3O)n2)cc1 | 278 to 280
51 | CC(C)(C)OC(=O)[C@@H]1CCCN2C(=O)CC[C@H](NS(C)(=O)=O)C(=O)N12 | 68 to 70
52 | O=C1CC2(CCCCC2)CN1O | 110

Row | Compound | melting point [°C]
53 | CCSC(=S)N1Cc2[nH]c3ccccc3c2CC1CO (centres undefined) | 74 to 76
54 | Clc1cccc(CSc2ccncc2)c1 | 222 to 224
55 | COc1ccc(Cl)cc1C(=O)NCCc1ccc(Br)c(S(=O)(=O)N=CN(C)C)c1 | 150 to 152
56 | COc1cccc2c(OCCN3CCOCC3)c(-c3ccccc3)c(=O)oc12 | 90 to 91
57 | CCOC(=O)c1cn(C2CC2)c2c(F)c(NCCCO)c(F)cc2c1=O | 160 to 162
58 | c1cn(CCc2ccc3c(c2)-c2[nH]nc(-c4ccsc4)c2C3)cn1 | 212 to 216
59 | FC(F)(F)Oc1cccc(C=Cc2nc(CNc3ccc(CCCCn4ccnn4)cc3)co2)c1 | 91 to 93
60 | OCC1C=CC(n2cnc3c(Cl)ncnc32)C1 (centres undefined) | 121 to 124
61 | COc1cc(Cc2cnc(NCCCCc3ncc(Br)cc3C)[nH]c2=O)ccn1 | 120 to 121
62 | CC(=O)CNC(=O)Cc1ccccc1 | 126
63 | CCOC(=O)c1cn(C)c2cnc3cc(N4CCCC4)c(F)cc3c2c1=O | 270
64 | C#Cc1c(-c2ccc(F)cc2)nn(-c2ccccc2)c1C(C)C | 117 to 118
65 | O=C(Cc1cc(C(=O)c2ccc(I)c([N+](=O)[O-])c2)sc1-c1ccccc1)NO | 147 to 151
66 | C=C1C(O)C(CO)OC1n1cc(CC)c(N)nc1=O (centres undefined) | 194 to 196
67 | CC(=O)NC(=C(C)C(=O)O)c1ccccc1 | 190
68 | O=C1C[C@@H]2[C@@H](CC[C@H](CCc3ccccc3)OC3CCCCO3)[C@H](OC(=O)c3ccc(-c4ccccc4)cc3)C[C@@H]2O1 (some centres undefined) | 103 to 105
69 | CC(C)n1nc(-c2nc(C3=CCCN(C)C3)c(N)nc2-c2ccccc2)ccc1=O | 191 to 193
70 | CCNc1ncc(-c2cc(Cl)cc(Cl)c2Cl)c(N)n1 | 149 to 152
71 | COc1cc(C)ccc1Oc1ccc(Br)cc1C=O | 89 to 90
72 | COc1ccc(Br)c(C(=O)N2CCN(S(=O)(=O)c3ccccc3F)CC2)c1 | 167
73 | Cc1c(Br)c(=O)oc2nn(Cc3ccccc3Cl)c(C)c12 | 206 to 208
74 | Cn1c(=O)c([N+](=O)[O-])c(N2CCN(C(=O)c3cccs3)CC2)c2ccccc21 | 105
75 | COC(=O)c1oc2ccc(Cl)cc2c1-c1ccccc1C(F)(F)F | 205 to 208
76 | Cc1cc(Br)cnc1CCCCNC1=NS(=O)(=O)c2cc(-c3ccccn3)ccc21 | 233 to 234
77 | CCOC(=O)c1c(O)c2cc(F)cnc2n(Cc2ccc(OC)cc2)c1=O | 163
78 | COc1cnc(C(=O)O)cc1OC1CCCC1 | 184 to 185

Row | Compound | melting point [°C]
79 | COCNC(=O)c1c(-c2ccc(Cl)cc2)nsc1-c1ccccc1 | 119 to 120
80 | CCOC(=O)C1=C(C)NN=C(C(=O)OC)C1c1cccnc1 (centres undefined) | 179
81 | CCC(C)(C)C(O)(C#Cc1cccnc1)c1cncnc1 (centres undefined) | 170 to 172
82 | O=c1ccn(C2C=CC(CO)O2)c(=O)[nH]1 (centres undefined) | 150 to 151
83 | CCOCc1nc2c(N)nc3cc(OCc4ccc(C(F)(F)F)o4)ccc3c2n1CC(C)(C)NS(C)(=O)=O | 186 to 188
84 | O=C(NCc1ccc(Cl)cc1)c1cnc2cc(-n3cccc3)ccc2c1O | > 200
85 | CCOc1ccc(/C=C(\NC(=O)c2ccc(OCC(C)C)cc2)C(=O)NCCO)cc1 | 124 to 125
86 | CC(C)(CO)NC(=O)c1nn(-c2ccc(Br)cc2)c2c1C1CCC2C1 (centres undefined) | 184 to 186
87 | CCCCCCCC(=O)Oc1ccc2nc(S(N)(=O)=O)sc2c1 | 114
88 | O=C(O)CCc1oc(-n2cccn2)nc1-c1ccc(Cl)cc1 | 171 to 172
89 | O=C1C=CC(O)(c2cccs2)C=C1 | 103
90 | CC(c1oc2ccccc2c(=O)c1-c1cccc(F)c1)n1ncc2c(Cl)ncnc21 (centres undefined) | 197 to 201
91 | CC(C)(C)C(=O)Nc1ccccn1 | 74 to 76
92 | CC1CCN(C(C#N)C2(c3ccc(Cl)c(Cl)c3)CCC2)CC1 (centres undefined) | 76 to 78
93 | C=CCn1cc(C(O)(c2ccc3c(cnn3-c3ccc(F)cc3)c2)C(F)(F)F)c2ccn(C)c(=O)c21 (centres undefined) | 91 to 93
94 | CCNC(=O)c1c(Cl)ccc(N(C)C)c1[Si](C)(C)C | 179 to 180
95 | Cc1cc(OC(C)(C)C(=O)O)c(C)c(Br)c1C | 151 to 153
96 | CNC(=O)c1cc(-c2ccc(S(C)=O)cc2)c(-c2ccc(F)cc2)s1 (centres undefined) | 218 to 220
97 | Cc1[nH]c(-c2ccccc2)c2c1C(c1ccccc1)=NCC(=O)N2 | 310 to 312
98 | COC(=O)c1cc(=O)c2oc3ccc(Cl)cc3c(=O)c2n1C | 276 to 278
99 | COc1nc2ccccc2nc1NC(=S)N1CCN(c2cc(F)cc(F)c2)CC1 | 280 to 281
100 | COC(=O)c1c([N+](=O)[O-])cc(OC)c(OC)c1OC | 74 to 76
101 | CN1C(=O)Nc2ccc(-c3cccc(Cl)c3)cc2C1(C)C1CC1 (centres undefined) | 193 to 194
102 | CC(=O)C(C(C)=O)[C@@H]1NC(=O)[C@@H]1C(C)(C)O | 109 to 110
103 | COc1ccc(S(=O)(=O)C(C)(Cc2ccccc2)C(=O)NO)cc1 (centres undefined) | 58
104 | Nc1c(Cl)cc(C(=O)Cl)cc1Cl | 165
